Measured values reported in patent US10662445B2, “Process for the production of bio-butanol by fermentation of glycosidic waste matter” (priority 2018, dated 2020).
Each block holds one compound with its values, some of them ahead of it.

Assays:
[1] = Organic-solvent extraction of microbial inhibitors from an agro-waste hydrolysate mimic; type: physicochemical; conditions: for Ferulic acid removal / Furfural removal / HMF removal / Syringaldehyde removal / TRS removal / Vanillic acid removal / Vanillin removal / TRS (total reducing sugar) after extraction: Vaqueous:Vorganic = 2:1; for TRS (total reducing sugar) after extraction: standard 52.00 g/L; for Inhibitor extraction, phase separation by centrifugal force / Inhibitor extraction, phase separation by separating funnel: solvent bis-(2-ethylhexyl) sebacate
Description: Media composition was designed according to the inhibitory compound limit concentration reported in the literature for bio-butanol producing solventogenic Clostridia (Baral et al. Microbial inhibitors: formation and effects on acetone-butanol-ethanol fermentation of lignocellulosic biomass. Applied microbiology and biotechnology, Vol. 98(22), 2014: 9151-9172; Qureshi et al. Production of butanol (a biofuel) from agricultural residues: Part I—Use of barley straw hydrolysate. Biomass and bioenergy, Vol. 34(4), 2010: 559-565). Different volume ratio of the hydrolysate mimic and organic solvents, such as (5:1), (3:1), (2:1), (1:1) and (1:2) (vaqueous:vorganic) were tried in order to minimize extractant expenditure. Organic and aqueous phase mixing was carried out by a propeller impeller. Rotation rate (100, 200, 250, 300 and 400 rpm) and operation-time (15, 30, 45, 60 and 90 min) were tested at room temperature (25° C.). A comparative study between settling through separating funnel vs. centrifugal force assisted separation was also made to guarantee an optimal recovery of the broth phase.
A complex mixture of several reduced sugar compounds (e.g. as glucose, fructose, and xylose) and microbial inhibitors (furfural, HMF, acetic acid, levulinic acid, vanillin, vanillic acid, feluric acid and syringaldehyde) were produced during the pretreatment step (hydrolysis). In order to analyse these compounds, liquid samples were collected and analyzed using liquid chromatography-mass spectrometry (LC-MS) and liquid chromatography-tandem mass spectrometry (LC/MS-MS) equipped with a ZORBAX Carbohydrate column (5 μm, 150×4.6 mm ID column) (Agilent Technologies, USA) with D6 glucose as the internal standard and a Biobasic-18 column (5 μm, 250×4.6 mm ID) (Agilent Technologies, USA) with phenylethanol-D5 as the internal standard. […] Methanol water (8:2) and acetonitrile water (8.5:1.5) were used to dilute the sample before inhibitor and carbohydrate analysis. […]

[2] = system: Clostridium acetobutylicum NRRL B-582 (ATCC-824) (CA); assay: Bio-compatibility (solvent toxicity) batch ABE fermentation, CA; conditions: for ABE / Butanol: CA
Procedure: (§1) Clostridium acetobutylicum NRRL B-582 (ATCC-824) (CA) and Clostridium beijerinckii NRRL B-466(CB) were considered for current investigation to produce bio-butanol from different brewery industry wastes. They were kindly provided by Agricultural Research Station, USDA (USA). The microorganisms were grown and maintained in peptone-yeast extract-glucose (PYG) media under anaerobic condition (vegetative growth) at 37±1° C. and 150 rpm for 24 h and 17 h, respectively, before being transferred into the fermentation medium. The medium (g L^−1) comprised: glucose (10); yeast extract (10); peptone (5); tryptone (5); cysteine-HCl (0.5); K2HPO4 (2.04); KH2PO4 (0.04); FeSO4*7H2O (1.1×10^−3); CaCl2 (8×10^−3); MgSO4*7H2O (0.0192); NaCl (0.08); and NaHCO3 (0.4). 125 mL serum bottles (working volume 50 mL) were used for both butanol production and inoculum development (Maiti et al., January 2016, Maiti et al., August 2015). Anaerobic conditions were maintained within the bottle by sparging N2 for 10 minutes and immediately sealed by an aluminum crimp seal containing silicone septum (Fisher scientific, Canada) by means of a hand operated crimper (E-Z Crimper™, VWR, Ontario, Canada). Prior to culture development, the medium was sterilized for 20 min at 121±1° C. About 10% (v/v) (dry cell weight […]) of microbial culture in its exponential phase of growth (OD600nm=1.3-1.5) was used as inoculum for all the experiments conducted in this investigation.
(§2) Set-1, set-4 and set-5 were included as control-1, control-2 and control-3 respectively. All the experiments were carried out in P2 nutrient media as described later in batch fermentation section.
(§3) Batch fermentation was performed in 125 mL serum vials (working volume of 50 mL) at pH 6.7±0.1. The P2 medium was sterilized at 121±1° C. for 20 min. Prior to fermentation, anaerobic conditions for each bottle were maintained by sparging the medium with N2 for 10 minutes and immediately closing with an aluminum crimp seal containing silicon septum (Fisher scientific, Canada) by means of a hand-operated crimper (E-Z Crimper™, VWR, Ontario, Canada). A modified P2 medium, with the following composition, was used for fermentation experiments: Buffer→KH2PO450 g/L, K2HPO450 g/L, ammonium acetate 220 g/L; Minerals→MgSO4*7H2O 20 g/L, MnSO4*H2O 1 g/L, FeSO4*7H2O 1 g/L, NaCl 1 g/L; Vitamins→thiamin 0.1 g/L, biotin 0.001 g/L). Since brewery industry wastes were already enriched with yeast protein, no additional yeast protein nor peptone were supplemented.
(§4) The fermentation was initiated by inoculating the P2 medium with the seed cultures at a ratio of 10% (v:v). […] Fermentation experiments were performed at 37±1° C. with shaking at 150 rpm for 72 h in duplicates. 1 mL of culture broth from each batch assay was used for metabolite analysis. Data described here present average values from duplicate runs for duplicate samples.
(§5) To determine the different metabolites produced during ABE fermentation (i.e. butanol, ethanol, acetone, butyric acid, and acetic acid) liquid samples from each fermentation broth were collected and analyzed using gas chromatography (GC) (GC7890B, Agilent Technologies, USA) equipped with a FID detector and a HP-INNOWax™ column (30 m, 0.25 mm ID, 0.25 μm df). Isobutanol was used as the internal standard. Before injecting the sample (1 mL) in the GC for products analysis, the sample was centrifuged for 5 minutes at 7650×g and the supernatant was filtered by 0.45 μm syringe filter. The GC conditions comprised: helium carrier gas at a flow rate of 1 mL/min with a temperature ramp from the initial temperature of 50° C. to 150° C.

[3] = system: Clostridium beijerinckii NRRL B-466 (CB); assay: Bio-compatibility (solvent toxicity) batch ABE fermentation, CB
Procedure: as §1, §2, §3, §4, §5

[4] = Extraction 1, hydrolysate mimic
[5] = Extraction 2, hydrolysate mimic
[6] = Extraction 3, hydrolysate mimic
[7] = Extraction 4, hydrolysate mimic
[8] = first stage, ratio 2:1, hydrolysate mimic
[9] = simulated synthetic media as well as waste hydrolysate, ex-situ detoxification
[10] = Control-2 (glucose + BIS) + extraction (2:1 mimic:organic solvent) before fermentation
[11] = Set-7 (10 times diluted BIS) + extraction (2:1)
[12] = Set-8 (50 times diluted BIS) + extraction (2:1)
[13] = homogenizer rotational speed 100 rpm
[14] = homogenizer rotational speed 200 rpm
[15] = homogenizer rotational speed 250 rpm
[16] = homogenizer rotational speed 300 rpm
[17] = homogenizer rotational speed 400 rpm

SMILES: CCCCC(CC)COC(=O)CCCCCCCCC(=O)OCC(CC)CCCC (stereo not drawn) [bis-(2-ethylhexyl) sebacate]
Ferulic acid removal [1, 4]: 97%
Furfural removal [1, 4]: 79%
HMF removal [1, 4]: 78%
Syringaldehyde removal [1, 4]: 93%
TRS removal [1, 4]: 0%
Vanillic acid removal [1, 4]: 93%
Vanillin removal [1, 4]: 95%
TRS (total reducing sugar) after extraction [1, 4]: 52.00 g/L
Ferulic acid removal [1, 5]: 99%
Furfural removal [1, 5]: 97%
HMF removal [1, 5]: 96%
Syringaldehyde removal [1, 5]: 99%
TRS removal [1, 5]: 0%
Vanillic acid removal [1, 5]: 97%
Vanillin removal [1, 5]: 97%
TRS (total reducing sugar) after extraction [1, 5]: 52.00 g/L
Ferulic acid removal [1, 6]: 100%
Furfural removal [1, 6]: 100%
HMF removal [1, 6]: 100%
Syringaldehyde removal [1, 6]: 100%
TRS removal [1, 6]: 0%
Vanillic acid removal [1, 6]: 100%
Vanillin removal [1, 6]: 100%
TRS (total reducing sugar) after extraction [1, 6]: 52.00 g/L
Ferulic acid removal [1, 7]: 100%
Furfural removal [1, 7]: 100%
HMF removal [1, 7]: 100%
Syringaldehyde removal [1, 7]: 100%
TRS removal [1, 7]: 0%
Vanillic acid removal [1, 7]: 100%
Vanillin removal [1, 7]: 100%
TRS (total reducing sugar) after extraction [1, 7]: 52.00 g/L
Extraction efficiency for phenolic compounds [1, 8]: > 93%
Extraction efficiency towards furan derivatives [1, 8]: 78-79%
Removal of the inhibitors from the mimic synthetic media ([1]; set-10 and set-11 (10 and 50 times diluted BIS), extraction 2:1): > 99%
Extraction of furan derivatives [1, 9]: More than 80%
Extraction of phenolic compounds [1, 9]: more than 95%
Extraction of reducing sugar [1, 9]: almost no extraction
ABE [2, 10]: 13.96 ± 0.3 g/L
Butanol [2, 10]: 10.25 ± 0.5 g/L
ABE [2, 11]: 12.5 ± 0.2 g/L
Butanol [2, 11]: 9.13 ± 0.2 g/L
ABE [2, 12]: 12.2 ± 0.3 g/L
Butanol [2, 12]: 9.1 ± 0.3 g/L
Average increase in bio-butanol production in comparison with control 1/set-1 ([2]; set-9: control 2 after extraction, both bacterial strains): 8-10%
ABE [3, 10]: 13.15 ± 0.3 g/L
Butanol [3, 10]: 9.58 ± 0.2 g/L
ABE [3, 11]: 11.48 ± 0.4 g/L
Butanol [3, 11]: 8.62 ± 0.3 g/L
ABE [3, 12]: 11.0 ± 0.3 g/L
Butanol [3, 12]: 8.4 ± 0.2 g/L

SMILES: O=Cc1ccco1 [Furfural, furfural]
Inhibitor extraction, phase separation by centrifugal force [1, 13]: 68%
Inhibitor extraction, phase separation by separating funnel [1, 13]: 65%
Inhibitor extraction, phase separation by centrifugal force [1, 14]: 69%
Inhibitor extraction, phase separation by separating funnel [1, 14]: 68%
Inhibitor extraction, phase separation by centrifugal force [1, 15]: 78%
Inhibitor extraction, phase separation by separating funnel [1, 15]: 75%
Inhibitor extraction, phase separation by centrifugal force [1, 16]: 78%
Inhibitor extraction, phase separation by separating funnel [1, 16]: 76%
Inhibitor extraction, phase separation by centrifugal force [1, 17]: 80%
Inhibitor extraction, phase separation by separating funnel [1, 17]: 78%

SMILES: O=Cc1ccc(CO)o1 [HMF, hydroxymethyl furfural]
Inhibitor extraction, phase separation by centrifugal force [1, 13]: 71%
Inhibitor extraction, phase separation by separating funnel [1, 13]: 71%
Inhibitor extraction, phase separation by centrifugal force [1, 14]: 74%
Inhibitor extraction, phase separation by separating funnel [1, 14]: 73%
Inhibitor extraction, phase separation by centrifugal force [1, 15]: 79%
Inhibitor extraction, phase separation by separating funnel [1, 15]: 78%
Inhibitor extraction, phase separation by centrifugal force [1, 16]: 82%
Inhibitor extraction, phase separation by separating funnel [1, 16]: 80%
Inhibitor extraction, phase separation by centrifugal force [1, 17]: 84%
Inhibitor extraction, phase separation by separating funnel [1, 17]: 80%

Inhibitor extraction, phase separation by centrifugal force [1, 13]: 95%
Inhibitor extraction, phase separation by separating funnel [1, 13]: 93%
Inhibitor extraction, phase separation by centrifugal force [1, 14]: 95%
Inhibitor extraction, phase separation by separating funnel [1, 14]: 93%
Inhibitor extraction, phase separation by centrifugal force [1, 15]: 97%
Inhibitor extraction, phase separation by separating funnel [1, 15]: 95%
Inhibitor extraction, phase separation by centrifugal force [1, 16]: 97%
Inhibitor extraction, phase separation by separating funnel [1, 16]: 97%
Inhibitor extraction, phase separation by centrifugal force [1, 17]: 96%
Inhibitor extraction, phase separation by separating funnel [1, 17]: 97%
SMILES: COc1cc(C=O)ccc1O [Vanillin, vanillin]
